Tested on: IL-12 induced STAT4 phosphorylation mediated by TYK2/JAK2
Assay: IL-12 induced pSTAT4 in human PBMC
Format: cell-based
Conditions: 1 hr compound, 1.7 ng/mL IL-12 for 30 minutes
Protocol: Human PBMC were isolated from buffy coat and are stored frozen for assays as needed. […] 15 μL of compound or DMSO was added to the well at the desired concentrations and incubated at 1 hr at 37° C. 15 μL of stimulus (final concentration of 1.7 ng/mL IL-12) was added for 30 minutes prior to pSTAT4 and total STAT4 analysis using cell lysates prepared and analyzed by MSD reagents as per manufacturer protocol. The final DMSO concentration of compound in the assay was 0.1%. The IL-12 induced pSTAT4 assay evaluates the inhibition of IL-12 induced STAT4 phosphorlyation mediated by TYK2/JAK2 ([…] complex).

IC50 [µM]	SMILES
< 0.1	CNc1cc(-c2cnc3n([C@H]4COC[C@@H]4O)cccc2-3)nc2c(C(=O)N[C@@H]3C[C@@H]3F)cnn12 [Compound I-820]
< 0.1	CNc1cc(-c2cn([C@H]3COC[C@H]3F)c3ncccc23)nc2c(C(=O)N[C@H]3CC[C@@H]3OC)cnn12 [Compound I-625]
< 0.1	O=C(N[C@H]1CC[C@@H]1F)c1cnn2c3c(c(-c4cn([C@H]5C[C@H](O)C5)c5ncccc45)nc12)OCCN3 [Compound I-757]
< 0.1	CNc1cc(-c2cnc3n([C@H]4CN(C)C[C@@H]4OC)cccc2-3)nc2c(C(=O)N[C@H]3CC[C@@H]3OC)cnn12 [Compound I-947]
< 0.1	CNc1cc(Nc2cccn(C3CCOCC3)c2=O)nc2c(C(=O)NC3CC[C@]3(C)O)cnn12 (stereo partly shown) [Compound I-348]
< 0.1	CNc1cc(-c2cn([C@H]3CCOC[C@@H]3F)c3ncccc23)nc2c(C(=O)N[C@H]3CC[C@@H]3OC)cnn12 [Compound I-802]
< 0.1	O=C(NC1CC[C@@H]1F)c1cnn2c3c(c(-c4cn([C@H]5C[C@H](O)C5)c5ncccc45)nc12)OCCN3 (stereo partly shown) [Compound I-756]
< 0.1	CNc1cc(Nc2cccn([C@H]3CCC[C@@H](C#N)C3)c2=O)nc2c(C(=O)NC3CCC3(F)F)cnn12 (stereo partly shown) [Compound I-330]
< 0.1	CNc1ccc(-c2cc(NC)n3ncc(C(=O)NC4CC[C@H]4F)c3n2)n2ccnc12 (stereo partly shown) [Compound I-483]
< 0.1	CNc1cc(Nc2cccn([C@@H]3C[C@H]3F)c2=O)nc2c(C(=O)N[C@@H]3CC[C@H]3OC)cnn12 [I-53, 5-((1-((1R,2R)-2-Fluorocyclopropyl)-2-oxo-1,2-dihydropyridin-3-yl)amino)-N-((1R,2R)-2-methoxycyclobutyl)-7-(methylamino)pyrazolo[1,5-a]pyrimidine-3-carboxamide]
< 0.1	CNc1cc(-c2cn([C@H]3COC[C@@H]3OC)c3ccccc23)nc2c(C(=O)NC3CC[C@@H]3OC)cnn12 (stereo partly shown) [Compound I-741]
< 0.1	CNc1cc(Nc2cccn([C@H]3[C@@H]4COC[C@@H]43)c2=O)nc2c(C(=O)N[C@@H]3CC[C@@H]3F)cnn12 [Compound I-205]
< 0.1	CNc1cc(Nc2cccn([C@H]3CC[C@H](OC)CC3)c2=O)nc2c(C(=O)N[C@@H]3CC[C@@]3(C)OC)cnn12 [Compound I-428]
< 0.1	CNc1cc(Nc2cccn([C@H]3[C@@H]4COC[C@@H]43)c2=O)nc2c(C(=O)N[C@@H]3CC[C@H]3F)cnn12 [Compound I-208]
< 0.1	CNc1cc(-c2cn(CCOC)c3ncccc23)nc2c(C(=O)N[C@H]3CC[C@@H]3OC)cnn12 [Compound I-923]
< 0.1	CNc1cc(Nc2cccn([C@H]3[C@@H]4COC[C@@H]43)c2=O)nc2c(C(=O)NC3CCC3)cnn12 [Compound I-142]
< 0.1	CNc1cc(Nc2cccn([C@H]3C[C@H](F)C3)c2=O)nc2c(C(=O)N[C@@H]3CCC3(F)F)cnn12 [Compound I-285]
< 0.1	CNc1cc(Nc2cccn([C@@H]3CCOC[C@@H]3OC)c2=O)nc2c(C(=O)N[C@@H]3CCC3(F)F)cnn12 [Compound I-338]
< 0.1	CNc1cc(-c2cnc3n([C@@H]4COC[C@H]4O)cccc2-3)nc2c(C(=O)N[C@@H]3CC[C@H]3OC)cnn12 [Compound I-876]
< 0.1	CNc1cc(Nc2cccn([C@H]3C[C@@H](OC)C3)c2=O)nc2c(C(=O)N[C@H]3CC[C@@H]3OC)cnn12 [Compound I-253]
< 0.1	CNc1cc(Nc2cccn(C3CCOCC3)c2=O)nc2c(C(=O)NC3CC[C@@]3(C)OC)cnn12 (stereo partly shown) [Compound I-405]

IC50 [µM]	SMILES
< 0.1	CNc1cc(-c2cn([C@@H]3COC[C@H]3OC)c3ccccc23)nc2c(C(=O)NC3CC[C@@H]3OC)cnn12 (stereo partly shown) [Compound I-744]
< 0.1	CNc1cc(Nc2cccn([C@H]3CC[C@@H]3OC)c2=O)nc2c(C(=O)N[C@H]3CC[C@H]3O)cnn12 [Compound I-240]
< 0.1	CNc1cc(-c2cn([C@@H]3CCOC[C@@H]3OC)c3ncccc23)nc2c(C(=O)N[C@H]3CC[C@@H]3F)cnn12 [Compound I-798]
< 0.1	CNc1cc(Nc2cccn([C@H]3C[C@@H](OC)C3)c2=O)nc2c(C(=O)N[C@H]3CCC3(F)F)cnn12 [Compound I-296]
< 0.1	CNc1cc(Nc2cccn([C@H]3C[C@H](F)C3)c2=O)nc2c(C(=O)NC3CC[C@@H]3F)cnn12 (stereo partly shown) [Compound I-164]
< 0.1	CNc1cc(Nc2cccn(-c3ocnc3C)c2=O)nc2c(C(=O)NC3CCC3)cnn12 [Compound I-144]
< 0.1	O=C(N[C@H]1CCC1(F)F)c1cnn2c3c(c(-c4cn([C@H]5C[C@H](O)C5)c5ncccc45)nc12)OCCN3 [Compound I-776]
< 0.1	CNc1cc(-c2cnc3n([C@@H]4CCOC4)cccc2-3)nc2c(C(=O)NC3CC[C@@H]3OC)cnn12 (stereo partly shown) [Compound I-995]
< 0.1	CNc1cc(Nc2cccn([C@H]3CCCOC3)c2=O)nc2c(C(=O)N[C@H]3CC[C@@H]3F)cnn12 [Compound I-198]
< 0.1	CNc1cc(Nc2cccn([C@@H]3C[C@H]3F)c2=O)nc2c(C(=O)NC3CC[C@@H]3F)cnn12 (stereo partly shown) [Compound I-151]
< 0.1	CNc1cc(-c2cn([C@H]3CCOC[C@@H]3F)c3ncccc23)nc2c(C(=O)NC3CC[C@@H]3OC)cnn12 (stereo partly shown) [Compound I-651]
< 0.1	CNc1cc(-c2cn(C3CN(C)C3)c3ncccc23)nc2c(C(=O)NC3CCC3(F)F)cnn12 (stereo not shown) [Compound I-676]
< 0.1	CO[C@H]1CC[C@@H]1NC(=O)c1cnn2c(N)cc(-c3cnc4n([C@H]5COC[C@@H]5OC)cccc3-4)nc12 [Compound I-1006]
< 0.1	CNc1cc(-c2cn([C@@H]3COC[C@H]3OC)c3ncccc23)nc2c(C(=O)N[C@H]3CC[C@@H]3OC)cnn12 [Compound I-637]
< 0.1	CNc1cc(-c2cn(C3COC3)c3ncccc23)nc2c(C(=O)N[C@@H]3CCC3(F)F)cnn12 [Compound I-675]
< 0.1	CNc1cc(-c2cn([C@H]3COC[C@@H]3OC)c3ncccc23)nc2c(C(=O)NC3CC[C@@H]3OC)cnn12 (stereo partly shown) [Compound I-633]
< 0.1	CNc1cc(Nc2cccn([C@@H]3CCC[C@H](C#N)C3)c2=O)nc2c(C(=O)N[C@@H]3CC[C@H]3OC)cnn12 [Compound I-260]
< 0.1	CNc1cc(-c2cn(C3CCOCC3)c3ncccc23)nc2c(C(=O)N[C@H]3CCC3(F)F)cnn12 [Compound I-699]
< 0.1	CNc1cc(-c2cnc3n([C@@H]4CCOC[C@H]4OC)cccc2-3)nc2c(C(=O)N[C@@H]3CC[C@H]3OC)cnn12 [Compound I-896]
< 0.1	CNc1cc(-c2cn([C@@H]3CCOC[C@H]3F)c3ncccc23)nc2c(C(=O)N[C@H]3CC[C@H]3O)cnn12 [Compound I-918]
< 0.1	CNc1cc(Nc2cccn([C@@H]3CCOC[C@@H]3OC)c2=O)nc2c(C(=O)N[C@@H]3CC[C@H]3F)cnn12 [Compound I-217]

IC50 [µM]	SMILES
< 0.1	CNc1cc(Nc2cccn([C@@H]3CCCOC3)c2=O)nc2c(C(=O)NC3CCC3(F)F)cnn12 (stereo partly shown) [Compound I-315]
< 0.1	CNc1cc(Nc2cccn([C@@H]3CCCOC3)c2=O)nc2c(C(=O)NC3CC[C@@H]3F)cnn12 (stereo partly shown) [Compound I-194]
< 0.1	CNc1cc(Nc2cccn([C@@H]3C[C@H]3F)c2=O)nc2c(C(=O)N[C@@H]3C[C@H]3OC)cnn12 [Compound I-135]
< 0.1	CNc1cc(Nc2cccn([C@H]3C[C@@H](OC)C3)c2=O)nc2c(C(=O)N[C@H]3CC[C@@H]3F)cnn12 [Compound I-174]
< 0.1	CNc1cc(Nc2cccn([C@H]3[C@@H]4COC[C@@H]43)c2=O)nc2c(C(=O)N[C@H]3CCC3(F)F)cnn12 [Compound I-307]
< 0.1	CNc1cc(-c2cnc3n([C@H]4COC[C@@H]4O)cccc2-3)nc2c(C(=O)N[C@H]3CC[C@@H]3F)cnn12 [Compound I-828]
< 0.1	CNc1cc(Nc2cccn(C3COC3)c2=O)nc2c(C(=O)N[C@@H]3CC[C@@H]3F)cnn12 [Compound I-162]
< 0.1	CNc1cc(Nc2cccn(-c3ccccn3)c2=O)nc2c(C(=O)NC3CCC3(F)F)cnn12 (stereo not shown) [Compound I-318]
< 0.1	CNc1cc(-c2cn([C@H]3CCOC[C@H]3OC)c3ncccc23)nc2c(C(=O)NC3CC[C@@H]3F)cnn12 (stereo partly shown) [Compound I-546]
< 0.1	CNc1cc(-c2cn([C@H]3C[C@@H](O)C3)c3ncccc23)nc2c(C(=O)NC3CC3)cnn12 [Compound I-495]
< 0.1	CNc1cc(Nc2cccn([C@H]3CCC[C@@](C)(O)C3)c2=O)nc2c(C(=O)N[C@@H]3C[C@@H]3F)cnn12 [Compound I-129]
< 0.1	CNc1cc(-c2cn([C@@H]3CCOC[C@H]3F)c3ncccc23)nc2c(C(=O)N[C@H]3CC[C@@H]3OC)cnn12 [Compound I-804]
< 0.1	CNc1cc(-c2cn([C@H]3CC3(F)F)c3ncccc23)nc2c(C(=O)N[C@H]3CC[C@H]3O)cnn12 [Compound I-552]
< 0.1	CNc1cc(-c2cn([C@H]3CCN(C)C3)c3ncccc23)nc2c(C(=O)N[C@H]3CC[C@@H]3OC)cnn12 [Compound I-619]
< 0.1	CNc1cc(-c2cn([C@H]3COC[C@@H]3OC)c3ncccc23)nc2c(C(=O)NC3CC[C@H]3F)cnn12 (stereo partly shown) [Compound I-528]
< 0.1	CNc1cc(-c2cn([C@H]3COC[C@@H]3OC)c3ncccc23)nc2c(C(=O)N[C@H]3CC[C@@H]3OC)cnn12 [Compound I-634]
< 0.1	CNc1cc(Nc2cccn([C@@H]3CCC[C@](C)(OC)C3)c2=O)nc2c(C(=O)N[C@@H]3C[C@@H]3F)cnn12 [Compound I-131]
< 0.1	CNc1cc(-c2cn([C@H]3C[C@@H](O)C3)c3ncccc23)nc2c(C(=O)N[C@H]3CC[C@@H]3F)cnn12 [Compound I-511]
< 0.1	CNc1cc(Nc2cccn([C@H]3C[C@@H]3F)c2=O)nc2c(C(=O)N[C@@H]3C[C@H]3OC)cnn12 [Compound I-133]
